# Measured values: US7601850B2, “Phenyl-thiophene type vitamin D receptor modulators” (Eli Lilly and Company, priority 2002, dated 2009)
# Tested on: rat osteocalcin promoter
# Assay: OCN (osteocalcin) promoter assay in RG-15 (ROS 17/2.8) cells
# Format: cell-based
# Conditions: not given
# Description: 4. The OCN Promoter test is described in the “Assay” section of the Description, infra.
# 3. The OCN (Osteocalcin) Promoter Assay
# The OCN Promoter Assay is an indicator and marker for osteoporosis. Desired assay results are EC50 less than or equal to 325 nM. Preferred assay results are less than 50 nM.
# (3) Materials and Method for The OCN Promoter Assay:
# The activation of osteocalcin by VDR ligands was evaluated in a rat osteoblast-like cell line RG-15 (ROS 17/2.8) stably expressing rat osteocalcin promoter fused with luciferase reporter gene. The stable cell lines were established as reported before (Activation of Osteocalcin Transcription involves interaction of protein kinase A- and Protein kinase C-dependent pathways. Boguslawski, G., Hale, L. V., Yu, X.-P., Miles, R. R., Onyia, J. E., Santerre R. F., Chandrasekhar, S. J Biol. Chem. 275, 999-1006, 2000). Confluent RG-15 cells maintained in DMEM/F-12 medium (3:1) containing 5% FBS, 300 µg/ml G418 and at 37° C. under 5% CO2/95% air atmosphere were trypsinized (0.25% trypsin) and plated into white opaque 96-well cell culture plates (25000 cells/well). After 24 hr, cells (in DMEM/F-12 medium+2% FBS) were treated with various concentrations of compounds, dissolved in DMSO. The final DMSO concentration remained at 0.01% (v/v). After 48 hr treatment, the medium was removed, cells were lysed with 50 µl of lysis buffer (From Luciferase reporter assay system, Roche Diagnostics, Indianapolis, Ind.) and assayed for luciferase activity using the Luciferase Reporter Gene Assay kit from Boehringer Mannheim as per manufacturer's specifications.
row,Structure (SMILES),EC50 [nM]
1,"CCC(CC)(c1ccc(OCC(O)C(C)(C)C)c(C)c1)c1cc(C)c(C(=O)N[C@@H](C)C(=O)OC)s1 (single isomer, unassigned) [Ex. 54, L-2-[(5-{1-Ethyl-1-[4-(2-hydroxy-3,3-dimethyl-butoxy)-3-methyl-phenyl]-propyl}-3-methyl-thiophene-2-carbonyl)amino]propionic acid methyl ester]",27.5
2,"CCC(CC)(c1ccc(OCC(C)(O)C(C)(C)C)c(C)c1)c1ccc(C(=O)O)s1 (single isomer, unassigned) [Ex. 105, 3′-[4-(2-hydroxy-2,3,3-trimethylbutoxy)-3-methylphenyl]-3′-[5-carboxy-thiophen-2-yl]pentane]",736
3,"CCC(CC)(c1ccc(OCC(O)C(C)(C)C)c(C)c1)c1cc(C)c(C(=O)NC(C)(C)C(=O)OC)s1 (single isomer, unassigned) [Ex. 70, 2-[(5-{1-Ethyl-1-[4-(2-hydroxy-3,3-dimethyl-butoxy)-3-methyl-phenyl]-propyl}-3-methyl-thiophene-2-carbonyl)-amino]-2-methyl-propionic acid methyl ester]",25.8
4,"CCC(CC)(c1ccc(OCC(O)C(C)(C)C)c(C)c1)c1cc(C)c(C(=O)N2CCC[C@H]2C(=O)OC)s1 (single isomer, unassigned) [Ex. 74, L-1-(5-{1-Ethyl-1-[4-(2-hydroxy-3,3-dimethyl-butoxy)-3-methyl-phenyl]-propyl}-3-methyl-thiophene-2-carbonyl)-pyrrolidine-2-carboxylic acid methyl ester]",479
5,"CCC(CC)(c1ccc(OCC(O)C(C)(C)C)c(C)c1)c1cc(C)c(C(=O)NC(C)(C)C(=O)OC)s1 (single isomer, unassigned) [Ex. 76, 2-[(5-{1-Ethyl-1-[4-(2-hydroxy-3,3-dimethyl-butoxy)-3-methyl-phenyl]-propyl}-3-methyl-thiophene-2-carbonyl)-amino]-2-methyl-propionic acid methyl ester]",57.8

# Same assay, conditions: Rattus norvegicus
row,Structure (SMILES),EC50 [nM]
1,"CCC(CC)(c1ccc(OCC(=O)C(C)(C)C)c(C)c1)c1cc(C)c(S(=O)(=O)NC(=O)COC)s1 [Ex. 166, 5-{1-[4-(3,3-Dimethyl-2-oxo-butoxy)-3-methyl-phenyl]-1-ethyl-propyl}-3-methyl-thiophene-2-sulfonic acid (2-methoxy-acetyl)-amide]",151
2,"CCC(CC)(c1ccc(OCC(=O)C(C)(C)C)c(C)c1)c1cc(C)c(C(=O)N(C)CC(=O)O)s1 [Ex. 118, N-methyl-2-[(5-{1-[4-(3,3-Dimethyl-2-oxo-butoxy)-3-methyl-phenyl]-1-ethyl-propyl}-3-methyl-thiophene-2-carbonyl)-methylamino]-acetic acid]",32.2
3,"CCOC(=O)CSCc1sc(C(CC)(CC)c2ccc(OCC(=O)C(C)(C)C)c(C)c2)cc1C [Ex. 183, (5-{1-[4-(3,3-Dimethyl-2-oxo-butoxy)-3-methyl-phenyl]-1-ethyl-propyl}-3-methyl-thiophen-2-ylmethylsulfanyl)-acetic acid ethyl ester]",38.6
4,"CCC(O)(CC)COc1ccc(C(CC)(CC)c2cc(C)c(C(=O)O)s2)cc1C [Ex. 51, 5-{1-Ethyl-1-[4-(2-ethyl-2-hydroxy-butoxy)-3-methyl-phenyl]-propyl}-3-methyl-thiophene-2-carboxylic acid]",781
5,"CCC(CC)(c1ccc(OCC(C)(O)C(C)(C)C)c(OC)c1)c1ccc(C(=O)N[C@@H](C)C(=O)O)s1 (stereo partly drawn) [Ex. 115, d-3′-[4-(2-hydroxy-2,3,3-trimethylbutoxy)-3-methoxyphenyl]-3′-[5-(carboxy-1-ethylamino)carbonyl-thiophen-2-yl]pentane]",19.9
6,"CCC(CC)(c1ccc(OCC(O)C(C)(C)C)c(C)c1)c1cc(C)c(C(=O)N(C)CC(=O)O)s1 (single isomer, unassigned) [Ex. 122, N-methyl-2-[(5-{1-ethyl-1-[4-(2-hydroxy-3,3-dimethyl-butoxy)-3-methyl-phenyl]-propyl}-3-methyl-thiophene-2-carbonyl)-methylamino]-acetic acid]",67.5
7,CCC(CC)(c1ccc(OCS(C)(=O)=O)c(C)c1)c1cc(C)c(CCC(=O)C(C)(C)C)s1 [Ex. 13],313
8,"CCC(CC)(c1ccc(OCC(=O)C(C)(C)C)c(C)c1)c1cc(C)c(S(=O)(=O)NC(=O)C2CC2)s1 [Ex. 165, 5-{1-[4-(3,3-Dimethyl-2-oxo-butoxy)-3-methyl-phenyl]-1-ethyl-propyl}-3-methyl-thiophene-2-sulfonic acid cyclopropanecarbonyl-amide]",138
9,CCC(CC)(c1ccc(C(=O)NCC(=O)OC)c(C)c1)c1cc(C)c(CCC(O)C(C)(C)C)s1 (stereo not drawn) [Ex. 24],4.7
10,CCC(CC)(c1ccc(OCC(=O)C(C)(C)C)c(C)c1)c1cc(C)c(S(=O)(=O)/N=C/N(C)C)s1 [Ex. 161],77
11,CCC(CC)(c1ccc(OCC(O)C(C)(C)C)c(C)c1)c1cc(C)c(S(=O)(=O)N[C@H](C)C(=O)OC)s1 (stereo partly drawn) [Ex. 150],55.2
12,"CCC(CC)(c1ccc(OCC(O)C(C)(C)C)c(C)c1)c1cc(C)c(C(=O)NCC(=O)OC)s1 (stereo not drawn) [Ex. 46, 2-[5-{1-Ethyl-1-{4-(2-hydroxy-3,3-dimethyl-butyoxy)-3-methyl-phenyl-propyl}-3-methyl-thiophene-2-carbonyl)-amino]-acetic acid methyl ester]",43.6
13,CCC(CC)(c1ccc(OCC(O)C(C)(C)C)c(C)c1)c1ccc(S(=O)(=O)NCC(=O)O)s1 (stereo not drawn) [Ex. 153],187
14,"CCC(C)[C@H](NC(=O)c1sc(C(CC)(CC)c2ccc(OCC(O)C(C)(C)C)c(C)c2)cc1C)C(=O)OC (stereo partly drawn) [Ex. 68, L-2-[(5-{1-Ethyl-1-[4-(2-hydroxy-3,3-dimethyl-butoxy)-3-methyl-phenyl]-propyl}-3-methyl-thiophene-2-carbonyl)-amino]-3-methyl-pentanoic acid methyl ester]",56
15,"CCC(CC)(c1ccc(OCC(O)C(C)(C)C)c(C)c1)c1cc(C)c(C(=O)NCCS(C)(=O)=O)s1 (stereo not drawn) [Ex. 38, 5-[1-ethyl-1-[4-(2-hydroxy-3,3-dimethyl-butoxy)-3-methylphenyl]propyl]-3-methylthiophene-2-carboxylic acid (2-methylsulfonyl-ethyl) amide]",380
16,"CCC(CC)(c1ccc(OCC(O)C(C)(C)C)c(C)c1)c1cc(C)c(-c2n[nH]c(=O)o2)s1 (single isomer, unassigned) [Ex. 171]",92.6
17,"CCC(CC)(c1ccc(OCC(O)C(C)(C)C)c(C)c1)c1ccc(C(=O)O)s1 (stereo not drawn) [Ex. 88, 3′-[4-(2-hydroxy-3,3-dimethylbutoxy)-3-methylphenyl]-3′-[5-carboxy-thiophen-2-yl]pentane]",169
18,CCC(CC)(c1ccc(C(=O)OC)c(C)c1)c1cc(C)c(CCC(O)C(C)(C)C)s1 (stereo not drawn) [Ex. 21],140
19,"CCC(CC)(c1ccc(OCC(=O)C(C)(C)C)c(C(C)C)c1)c1ccc(C(=O)OC)s1 [Ex. 91, 3′-[4-(2-oxo-3,3-dimethylbutoxy)-3-(1-methylethyl)phenyl]-3′-[5-methoxycarbonyl-thiophen-2-yl]pentane]",212
20,"CCC(CC)(c1ccc(OCC(O)C(C)(C)C)c(C)c1)c1cc(C)c(C(=O)N2CCC[C@H]2C(=O)O)s1 (single isomer, unassigned) [Ex. 73, L-1-(5-{1-Ethyl-1-[4-(2-hydroxy-3,3-dimethyl-butoxy)-3-methyl-phenyl]-propyl}-3-methyl-thiophene-2-carbonyl)pyrrolidine-2-carboxylic acid]",266
21,"CCC(CC)(c1ccc(OCC(O)C(C)(C)C)c(C)c1)c1cc(C)c(C(=O)NCC(=O)O)s1 (stereo not drawn) [Ex. 47, 2-[5-{1-Ethyl-1-{4-(2-hydroxy-3,3-dimethyl-butyoxy)-3-methyl-phenyl-propyl}-3-methyl-thiophene-2-carbonyl)-amino]-acetic acid]",27.7
22,CCOC(=O)CCNS(=O)(=O)c1sc(C(CC)(CC)c2ccc(OCC(O)C(C)(C)C)c(C)c2)cc1C (stereo not drawn) [Ex. 140],72.5
23,"CCC(CC)(c1ccc(OCC(O)C(C)(C)C)c(C)c1)c1cc(C)c(C(=O)N(C)OC)s1 (stereo not drawn) [Ex. 42, 5-{1-Ethyl-1-[4-(2-hydroxy-3,3-dimetliyl-butyoxy)-3-methyl-phenyl]-propyl}-3methyl-thiophene-2-carboxylic acid methoxy-methyl-amide]",33.5
24,CCC(CC)(c1ccc(C(=O)NCC(=O)O)c(C)c1)c1cc(C)c(CCC(O)C(C)(C)C)s1 (stereo not drawn) [Ex. 26],7.95
25,"CCC(CC)(c1ccc(OCC(O)C(C)(C)C)c(C)c1)c1cc(C)c(C(=O)N(C)CC(=O)O)s1 (stereo not drawn) [Ex. 123, N-2-[(5-{1-ethyl-1-[4-(2-hydroxy-3,3-dimethyl-butoxy)-3-methyl-phenyl]-propyl}-3-methyl-thiophene-2-carbonyl)-methylamino]-acetic acid]",475
26,CCC(CC)(c1ccc(OCC(=O)OC)c(C)c1)c1cc(C)c(CCC(O)C(C)(C)C)s1 (stereo not drawn) [Ex. 31],7.8
27,"CCC(CC)(c1ccc(C(=O)NCC(=O)O)c(C)c1)c1cc(C)c(CCC(O)C(C)(C)C)s1 (single isomer, unassigned) [Ex. 27]",49.1
28,"CCC(CC)(c1ccc(OCC(=O)C(C)(C)C)c(C)c1)c1cc(C)c(S(=O)(=O)NC(=O)C(C)C)s1 [Ex. 164, 5-{1-[4-(3,3-Dimethyl-2-oxo-butoxy)-3-methyl-phenyl]-1-ethyl-propyl}-3-methyl-thiophene-2-sulfonic acid isobutyryl-amide]",150
